Patent US4912116A, “Propiophenone derivatives for treatment of pollakiuria (frequency urination)” (Hokuriku Pharmaceutical Co., Ltd., priority 1986, dated 1990)
Where two headings read alike, the source gives them in different places.

Assays:
[1] = system: cystometrogram (time to micturition); assay: Effect on the cystometrogram (pollakiuria model rats induced by hypogastric nerve transection); assay type: in vivo, Male Wister rats; details: i.v., mean ± S.E., saline -6.0 ± 31.8
Experimental: (§1) statistical analysis: Each data of Experiment 1-6 represents the mean±S.E. statistical analysis of the data was performed using student's t-test.
Male Wister rats weighing 300 g were incised midline of the abdomen, and bilateral hypogastric nerves were transected.
Two days after hypogastric nerve transection, the rats were anesthetized with urethane (500 mg/kg, i.p.) and alpha-chloralose (50 mg/kg, i.p.) and fixed on their back.
Then, through a midline incision of the abdomen, the urinary bladder was exposed, provided with a small incision, a polyethylene tube inserted, and ureters were cut.
Through the polyethylene tube, saline was infused using a continuous infusion pump. On the other hand, the polyethylene tube was connected to a pressure transducer. Intravesical pressure was recorded on a recorder.
The drug was administrated through a cannula inserted into the left jugular vein at 30 sec before saline infusion.
Effect of drug was represented as delayed time to micturition.

[2] = system: micturition reflex (rhythmic bladder contractions); assay: Inhibition of micturition reflex (rhythmic bladder contractions) in anesthetized rats; assay type: in vivo, male wister rats; details: for Disappearance time (of bladder contractions): i.v., 3 rats, mean ± S.E.
Experimental: as §1
According to the method described by Morikawa et al. (Folia phamacol. japon.: 88,355 (1986), male wister rats weighing about 300 g (in case of intraduodenal administration, fasted 18-20 hours) were anesthetized with urethane (500 mg/kg, i.p.) and alpha-chloralose (50 mg/kg, i.p.), and fixed on their back.
Then, through a midline incision of the abdomen, the urinary bladder was exposed, provided with a small incision, and a balloon (capacity about 1 ml) was inserted into the bladder dome.
The balloon was connected to a pressure transducer and variations of inside pressure were recorded on a recorder.
Micturition reflex was elicited by elevating balloon pressure 10-20 cm H2 O.
In case of intravenous administration, the drug was administrated through a cannula inserted into the left jugular vein and, in case of intraduodenum administration, the drug was administrated through a cannula into the duodenum from outside the stomach.
In case of intravenous administration, the drug was evaluated by the dissappearance time of bladder contractions caused by micturition reflex.
In case of intraduodenal administration, the sum total of amplitude of bladder contractions caused by the micturition reflex was calculated during each five minutes at 5 min. before and 15, 30, 45, and 60 min. after the administration.
Then, the maximum inhibition rate was determined from one of the above judgment times compared with that of before the administration, and the dose which inhibited 50 percent of the sum total of amplitude of bladder contractions during five minutes (ED 50 value), was calculated from the graph.

[3] = system: cystometrogram (time to micturition); assay: Effects on the cystometrogram (in anesthetized rat); assay type: in vivo, Male Wister rats; details: i.v., 6 rats, mean ± S.E., saline -6.0 ± 49.8
Experimental: as §1
Male Wister rats weighing about 300 g were anesthetized with urethane (500 mg/kg, i.p.) and α-chloralose (50 mg/kg, i.p.) and fixed on their back.
Then, through a midline incision of the abdomen, the urinary bladder was exposed, provided with a small incision, a polyethylene tube was inserted into the bladder dome, and ureters were cut.
Then, through the polyethylene tube, saline was infused using a continuous infusion pump. On the other hand, the polyethylene tube was connected to a pressure transducer. Intravesical pressure was recorded on a recorder.
The drug was administrated through a cannula inserted into the left jugular vein at 30 sec before saline infusion. Effect of the drug was represented by delayed time to micturition.

[4] = system: cystometrogram (time to micturition); assay: Effects on the cystometrogram (Cat); assay type: in vivo, Mongrel adult cats; details: cats; for ED (2 min delay of micturition): Felis catus, read-out: ED2 (dose which delayed time to micturition by 2 min.)
Experimental: as §1
Mongrel adult cats weighing about 3 kg (in case of intraduodenal administration, fasted 24 hours) were anesthetized with urethane (500 mg/kg, i.p.) and alpha-chloralose (50 mg/kg, i.p.) and fixed on their back.
After midline incision of the abdomen, the ureters were ligated and polyethylene tubes were inserted into the kidney side and urinary bladder side, urine was led out of the body from the kidney side, and warm saline was infused using a continuous infusion pump from the urinary bladder side.
Then, a catheter was inserted into the bladder dome and connected to a pressure transducer Intravesical pressure was recorded on a recorder.
The infusion rate of saline was changed (0.7-6.6 ml/min) so as to induce the time to micturition from saline infusion at about five minutes.
Each of delayed time of micturition was evaluated. In case of intravenous administration, the drug was administered through a cannula inserted into the right femoral vein at 30 seconds before saline infusion.
In case of intraduodenal administration, the drug was administrated through a tube inserted into the duodenum by way of mouth at the time of saline infusion, and the time to micturition was measured at 15 min. intervals until 90 min.

[5] = system: cystometrogram (time to micturition); assay: Effects on the cystometrogram (Dog); assay type: in vivo, Mongrel adult dogs; details: i.v., dogs, mean ± S.E., saline 6.0 ± 13.8
Experimental: as §1
Mongrel adult dogs weighing about 10 kg were anesthetized with thiopental (20 mg/kg, i.v.) and immobilized with gallamine (2 mg/kg, i.v.), and fixed on their back.
In the experiment, infusion of pentobarbital (3 mg/kg/hr, i.v.) and gallamine (3 mg/kg i.v.) were continuted, and artifical respiration was performed (20 times/min, 20 ml air/kg).
After midline incision of the abdomen, the ureters were ligated and polyethylene tubes were inserted into the kidney side and the urinary bladder side. Urine was led out of the body from the kidney side, and warm saline was infused using a continuous infusion pump from the urinary bladder side.
Then, a catheter was inserted into the bladder dome and connected to a pressure transducer. Intravesical pressure was recorded on a recorder.
The infusion rate of saline was changed (6-35 ml/min) so as to induce the time to micturition from the saline infusion (time to micturition) at about five minutes.
The drug was administered (through a cannula inserted into the right femoral vein) at the second minute before the last time to micturition, and the delayed time of micturition was evaluated.

CCc1ccc(C(=O)C(C)CN2CCCC2)cc1 (stereo not drawn) [Compound 1]
Delayed time of micturition ([1]; 1 mg/kg, 5 rats): 91.8 ± 47.4 s | Delayed time of micturition ([1]; 4 mg/kg, 5 rats): 179.4 ± 111.0 s | Delayed time of micturition ([1]; 8 mg/kg, 6 rats, ** P < 0.01 vs control): 449.4 ± 65.4 s | Disappearance time (of bladder contractions) ([2]; 1 mg/kg): 1.1 ± 1.1 min | Disappearance time (of bladder contractions) ([2]; 2 mg/kg): 2.3 ± 0.5 min | Disappearance time (of bladder contractions) ([2]; 4 mg/kg): 7.1 ± 2.8 min | ED (3 min disappearance of contractions) ([2]; Rattus norvegicus, iv, read-out: ED3 (dose at which rhythmic bladder contractions disappeared in three (3) minutes)): 2.2 mg/kg | ED50 ([2]; Rattus norvegicus, intraduodenal administration, read-out: ED50 (dose which inhibited 50 percent of the sum total of amplitude of bladder contractions during five minutes)): 14.3 mg/kg | Delayed time of micturition ([3]; 1 mg/kg): 52.8 ± 50.4 s | Delayed time of micturition ([3]; 4 mg/kg): 102.0 ± 32.4 s | Delayed time of micturition ([3]; 8 mg/kg, ** P < 0.01 vs control): 200.4 ± 60.6 s | Delayed time to micturition ([4]; 1 mg/kg, i.v., mean ± S.E., saline 6.6 ± 10.2): -19.2 ± 6.6 s | Delayed time to micturition ([4]; 4 mg/kg, i.v., mean ± S.E., saline 6.6 ± 10.2): 70.8 ± 27.0 s | Delayed time to micturition ([4]; 8 mg/kg, i.v., mean ± S.E., saline 6.6 ± 10.2): 170.4 ± 48.0 s | Delayed time to micturition ([4]; 12.5 mg/kg, i.d., after 30 min., water 22.2 ± 16.2): 49.8 ± 8.4 s | Delayed time to micturition ([4]; 25.0 mg/kg, i.d., after 30 min., ** p < 0.01 vs control, water 22.2 ± 16.2): 105.0 ± 10.8 s | Delayed time to micturition ([4]; 50.0 mg/kg, i.d., after 30 min., water 22.2 ± 16.2): 128.4 ± 37.8 s | ED (2 min delay of micturition) ([4]; intraduodenal, 0.5 h, i.d., after 30 min.): 39 mg/kg | ED (2 min delay of micturition) ([4]; iv, 2 min, i.v.): 5.6 mg/kg | Delayed time of micturition ([5]; 1 mg/kg): 13.2 ± 21.0 s | Delayed time of micturition ([5]; 3 mg/kg, * p < 0.05 vs last time to micturition): 50.4 ± 15.0 s
